Here are results for 36 compounds from patent publication US20180215727A1, “LYSYL OXIDASE-LIKE 2 INHIBITORS AND USES THEREOF” (PharmAkea, Inc., priority 2015, published 2018).

Where a name gives a salt, the structure may show the parent alone.

The test deals with T1, human LOXL2 (Homo sapiens, UniProt Q9Y4K0).
T1 construct: expressed in transfected cells; secreted protein in 10-20x concentrated conditioned media
T1 sequence (Q9Y4K0 26-774): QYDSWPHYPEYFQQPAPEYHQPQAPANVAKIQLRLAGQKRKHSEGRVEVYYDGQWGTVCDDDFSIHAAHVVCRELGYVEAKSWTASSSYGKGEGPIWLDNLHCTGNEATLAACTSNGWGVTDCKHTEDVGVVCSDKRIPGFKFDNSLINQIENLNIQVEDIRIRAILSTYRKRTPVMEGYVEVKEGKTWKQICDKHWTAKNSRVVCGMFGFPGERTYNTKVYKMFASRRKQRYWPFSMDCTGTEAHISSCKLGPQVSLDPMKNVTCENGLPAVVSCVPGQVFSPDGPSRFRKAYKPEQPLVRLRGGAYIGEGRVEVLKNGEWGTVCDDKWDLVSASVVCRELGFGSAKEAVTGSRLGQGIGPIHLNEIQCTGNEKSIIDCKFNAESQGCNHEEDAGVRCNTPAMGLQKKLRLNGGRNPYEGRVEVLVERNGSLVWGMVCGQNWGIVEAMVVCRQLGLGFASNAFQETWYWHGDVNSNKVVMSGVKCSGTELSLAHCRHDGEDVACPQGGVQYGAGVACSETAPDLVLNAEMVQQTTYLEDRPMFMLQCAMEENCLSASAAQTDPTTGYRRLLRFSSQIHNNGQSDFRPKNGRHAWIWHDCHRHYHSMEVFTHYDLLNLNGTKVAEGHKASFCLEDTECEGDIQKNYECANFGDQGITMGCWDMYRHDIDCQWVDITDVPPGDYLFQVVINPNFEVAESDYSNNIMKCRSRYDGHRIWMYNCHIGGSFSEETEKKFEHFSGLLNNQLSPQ
Put plainly: Human LOXL2 Amine Oxidase Activity Assay (Amplex Red fluorescence). Conditions: concentrated conditioned media from CHO cells stably expressing human LOXL2, test compound incubated 2 h at 37° C., pH8, DAP substrate. In kind it is biochemical. As to the method:
Example B-1: Human LOXL2 Amine Oxidase Activity Assay
LOXL2 amine oxidase activity is evaluated by measuring Amplex Red fluorescence using 10-20× concentrated conditioned media from CHO cells stably expressing human LOXL2. To assay for amine oxidase activity, 10 μL of the concentrated conditioned media is incubated with 2 μL of test compound in DMSO and 73 μL Assay Buffer (50 mM Borate Buffer, pH8) for 2 h at 37° C. After the 2 h incubation, 5 μl of 10 mM 1,5-Diaminopentane (DAP) diluted in Assay Buffer and 10 μl of Amplex Red Mix (8.5 μl Assay Buffer+0.5 μl of 10 mM Amplex Red+1 μl of 500 U/ml Horseradish Peroxidase) are added and the plate mixed and immediately placed on the FlexStaion for fluorescence measurements. Fluorescence is read in kinetic mode every 2 min for 1 hour at excitation=544 and emission=590. The amine oxidase activity is calculated from the slope of the linear portion of the curve.
For `CN(C)C(=O)COc1ccc2oc(CN)cc(=O)c2c1` [Compound 1-35, 2-((2-(Aminomethyl)-4-oxo-4H-chromen-6-yl)oxy)-N,N-dimethylacetamide hydrochloride], the IC50 (usually the concentration at which inhibition is half-maximal) lay within 300 to 1000 nM.
For `NCc1cc(=O)c2cc(-c3cnc4ccccc4c3)ccc2o1` [Compound 1-9, 2-(Aminomethyl)-6-(quinolin-3-yl)-4H-chromen-4-one hydrochloride] the value was under 300 nM; for `C#Cc1cccc2c(=O)cc(CN)oc12` [Compound 1-51, 2-(Aminomethyl)-8-ethynyl-4H-chromen-4-one hydrochloride], over 1000 nM; for `C#Cc1ccc2c(=O)cc(CN)oc2c1` [Compound 1-31, 2-(aminomethyl)-7-ethynyl-4H-chromen-4-one hydrochloride], 300 to 1000 nM.
The compound `CN(C)C(=O)c1ccc2oc(CN)cc(=O)c2c1` [Compound 1-18, 2-(Aminomethyl)-N,N-dimethyl-4-oxo-4H-chromene-6-carboxamide hydrochloride] registered an IC50 of over 1000 nM.
For `NCc1cc(=O)c2ccc(OCc3ccccc3)cc2o1` [Compound 1-29, 2-(Aminomethyl)-7-(benzyloxy)-4H-chromen-4-one hydrochloride] the value was under 300 nM; for `NCc1cc(=O)c2cc(-c3cccnc3)ccc2o1` [Compound 1-8, 2-(Aminomethyl)-6-(pyridin-3-yl)-4H-chromen-4-one hydrochloride], under 300 nM; for `NCc1cc(=O)c2ccc(OCc3ccc4ccccc4n3)cc2o1` [Compound 1-65, 2-(Aminomethyl)-7-(quinolin-2-ylmethoxy)-4H-chromen-4-one hydrochloride], under 300 nM.
For `NCc1cc(=O)c2ccc(Oc3ccccc3)cc2o1` [Compound 1-68, 2-(Aminomethyl)-7-phenoxy-4H-chromen-4-one hydrochloride] the value was under 300 nM.
In the case of `COc1ccc2oc(CN)cc(=O)c2c1` [Compound 1-27, 2-(Aminomethyl)-6-methoxy-4H-chromen-4-one hydrochloride], the IC50 is under 300 nM.
For `NCc1cc(=O)c2cccc(OCC(=O)Nc3ccccc3)c2o1` [Compound 1-57, 2-((2-(Aminomethyl)-4-oxo-4H-chromen-8-yl)oxy)-N-phenylacetamide hydrochloride] the value was 300 to 1000 nM; for `NCc1cc(=O)c2cccc(OCCOc3ccccc3)c2o1` [Compound 1-56, 2-(Aminomethyl)-8-(2-phenoxyethoxy)-4H-chromen-4-one hydrochloride], over 1000 nM.
In the case of `Cn1cc(-c2ccc3c(=O)cc(CN)oc3c2)nn1` [Compound 1-39, 2-(Aminomethyl)-7-(1-methyl-1H-1,2,3-triazol-4-yl)-4H-chromen-4-one hydrochloride] it was under 300 nM; in that of `C=C(C)C#Cc1ccc2oc(CN)cc(=O)c2c1` [Compound 1-5, 2-(Aminomethyl)-6-(3-methylbut-3-en-1-yn-1-yl)-4H-chromen-4-one trifluoroacetate], under 300 nM.
In turn, `CN(C)C(=O)COc1ccc2c(=O)cc(CN)oc2c1` [Compound 1-32, 2-((2-(Aminomethyl)-4-oxo-4H-chromen-7-yl)oxy)-N,N-dimethylacetamide hydrochloride] yielded an IC50 of 300 to 1000 nM.
In the case of `NCc1cc(=O)c2ccc(Br)cc2o1` [Compound 1-2, 2-(Aminomethyl)-7-bromo-4H-chromen-4-one hydrochloride] it was under 300 nM; in that of `NCc1cc(=O)c2cc(C(=O)N3C[C@@H](O)[C@H](F)C3)ccc2o1` [Compound 1-61, 2-(Aminomethyl)-6-((3R,4R)-3-fluoro-4-hydroxypyrrolidine-1-carbonyl)-4H-chromen-4-one hydrochloride], 300 to 1000 nM.
As to `NCc1cc(=O)c2cc(-c3ccccc3)ccc2o1` [Compound 1-6, 2-(Aminomethyl)-6-phenyl-4H-chromen-4-one hydrochloride], the IC50 is under 300 nM.
As to `CS(=O)(=O)CCNC(=O)c1ccc2oc(CN)cc(=O)c2c1` [Compound 1-26, 2-(Aminomethyl)-N-(2-(methylsulfonyl)ethyl)-4-oxo-4H-chromene-6-carboxamide hydrochloride], the concentration for half-maximal inhibition (IC50) fell in the range of 300 to 1000 nM.
For `NCc1cc(=O)c2cc(C(=O)N3CCCCC3)ccc2o1` [Compound 1-19, 2-(Aminomethyl)-6-(piperidine-1-carbonyl)-4H-chromen-4-one hydrochloride] the value was 300 to 1000 nM.
For `NCc1cc(=O)c2cc(C(=O)NCCn3cncn3)ccc2o1` [Compound 1-21, N-(2-(1H-1,2,4-Triazol-1-yl)ethyl)-2-(aminomethyl)-4-oxo-4H-chromene-6-carboxamide hydrochloride] the value was 300 to 1000 nM; for `NCc1cc(=O)c2cc(-c3cn(-c4ccccc4)nn3)ccc2o1` [Compound 1-14, 2-(Aminomethyl)-6-(1-phenyl-1H-1,2,3-triazol-4-yl)-4H-chromen-4-one hydrochloride], under 300 nM; for `NCc1cc(=O)c2cc(OCc3ccccc3)ccc2o1` [Compound 1-30, 2-(Aminomethyl)-6-(benzyloxy)-4H-chromen-4-one hydrochloride], under 300 nM.
`NCc1cc(=O)c2cc(-c3cn(CCO)nn3)ccc2o1` [Compound 1-16, 2-(Aminomethyl)-6-(1-(2-hydroxyethyl)-1H-1,2,3-triazol-4-yl)-4H-chromen-4-one hydrochloride] yielded a concentration for half-maximal inhibition (IC50) of 300 to 1000 nM.
`C#CCOc1ccc2c(=O)cc(CN)oc2c1` [Compound 1-45, 2-(aminomethyl)-7-(prop-2-yn-1-yloxy)-4H-chromen-4-one hydrochloride]: the IC50 is under 300 nM.
In the case of `NCc1cc(=O)c2ccc(N3CCCc4ccccc43)cc2o1` [Compound 1-42, 2-(Aminomethyl)-7-(3,4-dihydroquinolin-1(2H)-yl)-4H-chromen-4-one hydrochloride] it was under 300 nM.
In the case of `NCc1cc(=O)c2ccc(-n3cccn3)cc2o1` [Compound 1-11, 2-(Aminomethyl)-7-(1H-pyrazol-1-yl)-4H-chromen-4-one hydrochloride] it was under 300 nM.
For `CC(C)(O)C#Cc1ccc2oc(CN)cc(=O)c2c1` [Compound 1-4, 2-(Aminomethyl)-6-(3-hydroxy-3-methylbut-1-yn-1-yl)-4H-chromen-4-one hydrochloride] the value was under 300 nM; for `NCc1cc(=O)c2cc(OCC(=O)O)ccc2o1` [Compound 1-34, 2-((2-(Aminomethyl)-4-oxo-4H-chromen-6-yl)oxy)acetic acid hydrochloride], 300 to 1000 nM.
Compound `NCc1cc(=O)c2cc(C(=O)N3CCC(C(=O)O)C3)ccc2o1` (single isomer, unassigned) [Compound 1-37, (R) or (S)-1-(2-(Aminomethyl)-4-oxo-4H-chromene-6-carbonyl)pyrrolidine-3-carboxylic Acid hydrochloride] had a 50% inhibitory concentration (IC50) of over 1000 nM.
In turn, `NCc1cc(=O)c2ccc(OCc3cn(-c4ccccc4)nn3)cc2o1` [Compound 1-47, 2-(Aminomethyl)-7-((1-phenyl-1H-1,2,3-triazol-4-yl)methoxy)-4H-chromen-4-one hydrochloride] came in with an IC50 of under 300 nM.
For `NCc1cc(=O)c2cc(C(=O)NCCO)ccc2o1` [Compound 1-59, 2-(Aminomethyl)-N-(2-hydroxyethyl)-4-oxo-4H-chromene-6-carboxamide hydrochloride] the value was 300 to 1000 nM; for `C#CCOc1cccc2c(=O)cc(CN)oc12` [Compound 1-53, 2-(Aminomethyl)-8-(prop-2-yn-1-yloxy)-4H-chromen-4-one hydrochloride], 300 to 1000 nM.
Regarding `Cn1cc(-c2ccc3oc(CN)cc(=O)c3c2)cn1` [Compound 1-12, 2-(Aminomethyl)-6-(1-methyl-1H-pyrazol-4-yl)-4H-chromen-4-one hydrochloride], the IC50 was under 300 nM.
Compound `NCc1cc(=O)c2ccc(Nc3cnn(-c4ccccc4)c3)cc2o1` [Compound 1-70, 2-(Aminomethyl)-7-((1-phenyl-1H-pyrazol-4-yl)amino)-4H-chromen-4-one hydrochloride] gave an IC50 of under 300 nM.
In the case of `NCc1cc(=O)c2ccc(OCc3cccc(C(=O)Nc4ccccc4)c3)cc2o1` [Compound 1-48, 3-(((2-(Aminomethyl)-4-oxo-4H-chromen-7-yl)oxy)methyl)-N-phenylbenzamide hydrochloride] it was under 300 nM.
